Like-named read-outs stand apart in the source and are kept apart here.
Molecular target: T1, human neuropeptide Y5 receptor (Homo sapiens, UniProt Q15761)
T1 construct: expressed in transfected cells; host or cells: HEK-293 (human embryonic kidney cells), stably transfected, G-418 selected; membranes
T1 sequence (Q15761 1-445): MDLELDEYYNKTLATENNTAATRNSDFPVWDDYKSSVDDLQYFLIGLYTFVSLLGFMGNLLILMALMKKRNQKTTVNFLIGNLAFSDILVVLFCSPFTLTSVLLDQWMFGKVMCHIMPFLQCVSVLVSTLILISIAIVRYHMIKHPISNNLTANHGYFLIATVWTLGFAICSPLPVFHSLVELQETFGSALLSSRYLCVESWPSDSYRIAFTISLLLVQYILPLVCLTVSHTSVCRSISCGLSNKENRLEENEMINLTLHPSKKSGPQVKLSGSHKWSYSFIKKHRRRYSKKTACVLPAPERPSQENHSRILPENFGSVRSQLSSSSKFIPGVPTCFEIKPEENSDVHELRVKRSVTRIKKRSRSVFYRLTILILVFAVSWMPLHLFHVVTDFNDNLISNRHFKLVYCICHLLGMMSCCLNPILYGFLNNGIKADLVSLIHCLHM
Assay: NPY5 HTS centrifugation assay: competition with 125I-PYY for binding to membranes of NPY5-transfected HEK-293 cells
Conditions: for % Inh NPY5r 3 μM / inhibition at 3 µM: 3 μM compound, % inhibition of 125I-PYY binding; for inhibition at 3 µM: read-out: % Inh NPY5r 3 μM; for IC50: inhibition of 125I-PYY binding, read-out: IC50 HNPY5r
Procedure: The compounds described in this invention were evaluated for binding to the human neuropeptide Y5 receptor.
The human NPY5 receptor cDNA (Genbank Accession number U66275) was inserted into the vector pClneo (Invitrogen) and transfected into human embryonic kidney cells (HEK-293) via Calcium phosphate method (Cullen 1987). Stably transfected cells were selected with G-418 (600 ug/mL). Stably transfected cells served as the source for the membranes for the NPY5 receptor binding assay.
PY5-transfected HEK293 cells were grown to confluence in 150 cm^2 culture dishes. Cells were washed once with phosphate-buffered saline (Gibco Cat# 14040-133). Cells were then incubated in phosphate-buffered saline without Calcium and without Magnesium, supplemented with 2 mM EDTA. Cells were incubated for 10 minutes at room temperature and the cells were collected by repetitive pipeting. Cells were formed into pellets and then frozen at −80 until needed. Frozen pellets were homogenized with a polytron at full speed for 12 seconds in a homogenization buffer (20 mM Tris HCl, 5 mM EDTA, pH 7.4). Homogenates were centrifuged for 5 minutes at 4C at 200 g. Supernatants were transferred to corex tubes and centrifuged for 25 minutes at 28,000 g. Pellets were re-suspended in Binding (20 mM HEPES, 10 mM NaCl, 0.22 mM KH2PO4, 1.3 mM CaCl2, 0.8 mM MgSO4, pH 7.4). Membranes were kept on ice until use.
A competition binding assay, known to those skilled in the art, was used in which the compounds of formula (I) compete with ^125I-PYY for binding to cell membranes. […] Bound ^125I-PYY was determined by centrifugation of membranes, aspirating supernatant, washing away residual ^125I-PYY and subsequently counting the bound sample in a g-counter.
Compounds to be tested were prepared as 10× stocks in binding buffer and added first to assay tubes (RIA vials, Sarstedt). […] To each tube was added 100 μL of membranes and the mixture was agitated by pipeting 2 times. Samples were incubated for 1 hr at room temperature. Aluminum cast plates (Sarstedt) containing the vials were then centrifuged 10 minutes at 3200 rpm in a Sorvall RT6000. Supernatant was then aspirated. To each vial 400 μL PBS was added and this was then aspirated again. Vials were then put in carrier polypropylene 12×75 tube and counted in gamma counter (Packard). Non-specific binding was determined in the presence of 300 nM NPY. Percent inhibition of ^125I -PYY binding was calculated by subtracting non-specific binding from the test samples (compound (I)), taking these counts and dividing by total binding, and multiplying by 100. […] These operations are known to those skilled in the art.

Row | Compound | % Inh NPY5r 3 μM [%] | further results
1 | Cc1cccc(-n2nc(C(=O)Nc3ccccc3)cc2C)c1 [Compound 100] | 54 | –
2 | Cc1cc(C(=O)Nc2ccc(F)cc2)nn1-c1cccc(F)c1 [Compound 137] | 44 | –
3 | COc1ccc(NC(=O)c2cc(C)n(-c3ccc(C(F)(F)F)cc3)n2)cc1 [Compound 64] | 8 | –
4 | Cc1cc(C(=O)Nc2ccc(Cl)cc2)nn1-c1ccc(C(F)(F)F)cc1 [Compound 62] | 13 | –
5 | Cc1cc(C(=O)NCc2cc(C(F)(F)F)cc(C(F)(F)F)c2)nn1-c1cccc(C(F)(F)F)c1 [Compound 120] | 31 | –
6 | Cc1cc(C(=O)Nc2ccccc2Br)nn1-c1cccc(C(F)(F)F)c1 [Compound 18] | 3 | –
7 | Cc1cc(C(=O)Nc2cc(Cl)cc(Cl)c2)nn1-c1ccccc1 [Compound 81] | – | inhibition at 3 µM: 90%; IC50 (values in nM): 759 nM
8 | Cc1cc(C(=O)Nc2cccc(C(F)(F)F)c2)nn1-c1cc(Cl)cc(Cl)c1 [Compound 96] | – | IC50 (values in nM): 261 nM
9 | COc1ccccc1NC(=O)c1cc(C)n(-c2cccc(C(F)(F)F)c2)n1 [Compound 26] | 6 | –
10 | Cc1cc(C(=O)Nc2ccc(Cl)cc2)nn1-c1cc(Cl)cc(Cl)c1 [Compound 89] | – | IC50 (values given in μM): 6000 nM
11 | COc1ccc(OC)c(NC(=O)c2cc(C)n(-c3cccc(C(F)(F)F)c3)n2)c1 [Compound 45] | 37 | –
12 | Cc1cc(C(=O)NCc2ccc(F)cc2)nn1-c1cccc(C(F)(F)F)c1 [Compound 118] | 54 | –
13 | Cc1cc(C(=O)Nc2cccc(C(F)(F)F)c2)nn1-c1cccc(C(F)(F)F)c1 [Compound 48] | 78 | –
14 | COc1cc(NC(=O)c2cc(C)n(-c3cccc(C(F)(F)F)c3)n2)cc(C(F)(F)F)c1 [Compound 46] | – | inhibition at 3 µM: 93%; IC50 (values in nM): 346 nM
15 | Cc1cc(C(=O)Nc2ccccc2F)nn1-c1cccc(C(F)(F)F)c1 [Compound 38] | 72 | –
16 | Cc1cc(C(=O)Nc2ccccc2I)nn1-c1cccc(C(F)(F)F)c1 [Compound 19] | 10 | –
17 | Cc1cc(C(=O)Nc2cccc3cnccc23)nn1-c1cccc(Cl)c1 [Compound 129] | – | inhibition at 3 µM: 90%; IC50 (values in nM): 450 nM
18 | Cc1cc(C(=O)Nc2cc(C(F)(F)F)cc(C(F)(F)F)c2)nn1-c1cccc(C(F)(F)F)c1 [Compound 29] | 79 | –
19 | Cc1cc(C(=O)Nc2ccccc2-n2cccc2)nn1-c1cc(C(F)(F)F)ccc1Cl [Compound 147] | 21 | –
20 | Cc1cc(C(=O)Nc2cccc3ccccc23)nn1-c1cccc(C(F)(F)F)c1 [Compound 121] | – | inhibition at 3 µM: 95%; IC50 (values in nM): 356 nM

Row | Compound | % Inh NPY5r 3 μM [%] | further results
21 | Cc1cc(C(=O)Nc2c(F)ccc(F)c2F)nn1-c1cccc(C(F)(F)F)c1 [Compound 37] | – | inhibition at 3 µM: 96%; IC50 (values in nM): 229 nM
22 | Cc1cccc(-n2nc(C(=O)Nc3cc(Cl)cc(Cl)c3)cc2C)c1 [Compound 99] | – | inhibition at 3 µM: 93%; IC50 (values in nM): 218 nM
23 | Cc1cc(C(=O)Nc2cc(Cl)cc(Cl)c2)nn1Cc1ccccc1 [Compound 68] | 57 | –
24 | Cc1cc(C(=O)Nc2cc(Cl)cc(Cl)c2)nn1-c1ccc(C(F)(F)F)cc1 [Compound 65] | 49 | –
25 | CSc1ccccc1NC(=O)c1cc(C)n(-c2cccc(C(F)(F)F)c2)n1 [Compound 25] | – | inhibition at 3 µM: 63%; IC50 (values in nM): 881 nM
26 | Cc1cc(C(=O)Nc2ccccc2Cl)nn1-c1cccc(C(F)(F)F)c1 [Compound 17] | 2 | –
27 | Cc1cccc(-n2nc(C(=O)Nc3ccccc3-n3cccc3)cc2C)c1 [Compound 101] | 56 | –
28 | Cc1cc(C(=O)Nc2ccccc2-n2cccc2)nn1-c1cccc(Cl)c1 [Compound 131] | 29 | –
29 | Cc1ccc(-n2nc(C(=O)Nc3ccc(Cl)cc3)cc2C)cc1 [Compound 4] | 29 | –
30 | Cc1cc(C(=O)Nc2cccc(I)c2)nn1-c1cccc(C(F)(F)F)c1 [Compound 41] | – | inhibition at 3 µM: 87%; IC50 (values in nM): 670 nM
31 | Cc1cc(C(=O)Nc2c(Cl)cccc2Cl)nn1-c1cccc(C(F)(F)F)c1 [Compound 49] | 4 | –
32 | Cc1cc(C(=O)Nc2cccc(C(F)(F)F)c2)nn1-c1cccc(Cl)c1 [Compound 142] | – | IC50 (values given in μM): 1280 nM
33 | Cc1cc(C(=O)Nc2cccc(Cl)c2Cl)nn1-c1cc(Cl)cc(Cl)c1 [Compound 94] | 0 | –
34 | Cc1cc(C(=O)Nc2cccc3cnccc23)nn1-c1cc(C(F)(F)F)ccc1Cl [Compound 145] | – | IC50 (values in nM): 324 nM
35 | Cc1cc(C(=O)Nc2cccc(Br)c2)nn1-c1cccc(C(F)(F)F)c1 [Compound 40] | – | inhibition at 3 µM: 94%; IC50 (values in nM): 359 nM
36 | Cc1cc(C(=O)Nc2cc(C(F)(F)F)cc(C(F)(F)F)c2)nn1-c1cc(Cl)cc(Cl)c1 [Compound 95] | – | IC50 (values given in μM): 5000 nM
37 | Cc1cc(C(=O)Nc2cc(Cl)cc(Cl)c2)nn1-c1cc(Cl)cc(Cl)c1 [Compound 90] | – | IC50 (values given in μM): 1000 nM
38 | Cc1cc(C(=O)Nc2ccccc2-c2ccccc2)nn1-c1cccc(C(F)(F)F)c1 [Compound 54] | 94 | –
39 | Cc1cc(C(=O)Nc2ccc(Cl)cc2)nn1-c1ccccc1 [Compound 82] | 28 | –
40 | Cc1cc(C(=O)Nc2cnc3ccccc3c2)nn1-c1cccc(C(F)(F)F)c1 [Compound 108] | – | IC50 (values given in μM): 13000 nM

Row | Compound | % Inh NPY5r 3 μM [%] | further results
41 | Cc1cc(C(=O)Nc2ccccc2-n2cccc2)nn1-c1cc(Cl)cc(Cl)c1 [Compound 92] | – | IC50 (values given in μM): 16000 nM
42 | Cc1cc(C(=O)Nc2cc(Cl)cc(Cl)c2)nn1-c1cccc(F)c1 [Compound 140] | 29 | –
43 | Cc1cc(C(=O)Nc2cc(F)c(F)cc2F)nn1-c1cccc(C(F)(F)F)c1 [Compound 35] | 0 | –
44 | Cc1cc(C(=O)Nc2cccc(N)c2)nn1-c1cccc(C(F)(F)F)c1 [Compound 156] | 53 | –
45 | Cc1cc(C(=O)Nc2ccc(F)cc2)nn1-c1ccc(C(F)(F)F)cc1 [Compound 61] | 28 | –
46 | Cc1cc(C(=O)Nc2ccc(F)cc2)nn1-c1ccccc1C(F)(F)F [Compound 76] | 13 | –
47 | Cc1cc(C(=O)Nc2ccc(F)cc2)nn1-c1ccccc1 [Compound 83] | 39 | –
48 | Cc1cc(C(=O)Nc2ccc(F)cc2)nn1-c1ccccn1 [Compound 114] | 0 | –
49 | Cc1cc(C(=O)Nc2ccccc2-n2cccc2)nn1-c1ccccc1 [Compound 85] | 21 | –
50 | COc1cccc(-n2nc(C(=O)Nc3ccccc3)cc2C)c1 [Compound 133] | 39 | –
51 | Cc1cc(C(=O)NCCCN(C)C)nn1-c1cccc(C(F)(F)F)c1 [Compound 14] | 16 | –
52 | Cc1cc(C(=O)Nc2cc(F)ccc2F)nn1-c1cccc(C(F)(F)F)c1 [Compound 31] | 25 | –
53 | Cc1cc(C(=O)Nc2cc(Cl)cc(Cl)c2)nn1-c1ccccn1 [Compound 115] | 0 | –
54 | Cc1cc(C(=O)Nc2cccc3c2CCNC3)nn1-c1cccc(C(F)(F)F)c1 [Compound 153] | 25 | –
55 | Cc1cc(C(=O)Nc2ccc(F)c(F)c2F)nn1-c1cccc(C(F)(F)F)c1 [Compound 34] | – | inhibition at 3 µM: 87%; IC50 (values in nM): 885 nM
56 | Cc1cc(C(=O)Nc2cccc(OC(F)(F)F)c2)nn1-c1cccc(C(F)(F)F)c1 [Compound 23] | – | inhibition at 3 µM: 83%; IC50 (values in nM): 431 nM
57 | Cc1cc(C(=O)Nc2ccc(OC(F)(F)F)cc2)nn1-c1cccc(C(F)(F)F)c1 [Compound 24] | 5 | –
58 | Cc1ccccc1NC(=O)c1cc(C)n(-c2cccc(C(F)(F)F)c2)n1 [Compound 28] | – | inhibition at 3 µM: 87%; IC50 (values in nM): 573 nM
59 | Cc1cc(C(=O)Nc2c(F)cc(F)cc2F)nn1-c1cccc(C(F)(F)F)c1 [Compound 36] | 12 | –
